Assay results as given in patent publication US7384734B2, “Compositions and methods for determining the susceptibility of a pathogenic virus to protease inhibitors” (Monogram Biosciences, Inc., priority 2002, dated 2008).

Test system: HIV-1 from patient plasma samples
Assay: PHENOSENSE HIV phenotypic drug susceptibility assay (fold change in IC50 versus NL4-3 reference strain)
Type: cell-based
Source text: A “fold change” is a numeric comparison of the drug susceptibility of a patient virus and a drug-sensitive reference virus. It is the ratio of the Patient IC50 to the drug-sensitive reference IC50, i.e., Patient IC50/Reference IC50=Fold Change (“FC”). […] A fold change less than 1 indicates the patient virus is more sensitive than the drug-sensitive reference virus. […] A fold change less than the clinical cutoff value means the patient virus is sensitive to that drug.
In one embodiment, the phenotypic analysis is performed using PHENOSENSE™ (ViroLogic Inc., South San Francisco, Calif.). See Petropoulos et al., 2000, Antimicrob. Agents Chemother. 44:920-928; U.S. Pat. Nos. 5,837,464 and 6,242,187. PHENOSENSE™ is a phenotypic assay that achieves the benefits of phenotypic testing and overcomes the drawbacks of previous assays.
A resistance test vector (“RTV”) can then be constructed by incorporating the amplified viral gene sequences into a replication defective viral vector by using any method known in the art of incorporating gene sequences into a vector. In one embodiment, restrictions enzymes and conventional cloning methods are used. See Maniatis et al., 1989, Molecular Cloning: A Laboratory Manual, Cold Spring Harbor Laboratory, N.Y. and Ausubel et al., 1989, Current Protocols in Molecular Biology, Greene Publishing Associates and Wiley Interscience, N.Y. In some embodiments, ApaI and PinAI restriction enzymes are used. Preferably, the replication defective viral vector is the indicator gene viral vector (“IGVV”). In some embodiments, the viral vector contains a means for detecting replication of the RTV. Preferably, the viral vector contains a luciferase expression cassette.
The assay can be performed by first co-transfecting host cells with RTV DNA and a plasmid that expresses the envelope proteins of another retrovirus, for example, amphotropic murine leukemia virus (MLV). Following transfection, virus particles can be harvested and used to infect fresh target cells. The completion of a single round of viral replication can be detected by the means for detecting replication contained in the vector. In one embodiment, the completion of a single round of viral replication results in the production of luciferase. Serial concentrations of anti-viral agents can be added at either the transfection step or the infection step.
Susceptibility to the anti-viral agent can be measured by comparing the replication of the vector in the presence and absence of the anti-viral agent. For example, susceptibility to the anti-viral agent can be measured by comparing the luciferase activity in the presence and absence of the anti-viral agent. Susceptible viruses would produce low levels of luciferase activity in the presence of anti-viral agents, whereas viruses with reduced susceptibility would produce higher levels of luciferase activity.
The phenotypic assay was conducted using the PHENOSENSE™ (Virologic, South San Francisco, Calif.) HIV assay (Petropoulos et al., 2000, Antimicrob. Agents Chemother. 44:920-928; U.S. Pat. Nos. 5,837,464 and 6,242,187). Plasma samples were collected from HIV-1-infected patients. Repeat samples from the same patient were removed to prevent possible bias resulting from unique combinations of mutations.
The genotype data was obtained by sequencing the protease of the HIV-1 present in each patient's sample and determining the sequence changes with respect to the sequence of the NL4-3 (GenBank Accession No. AF324493) HIV. The amino sequence for the NL4-3 protease is provided in SEQ. ID. No. 1 (FIG. 12A) and the nucleic acid sequence for the NL4-3 protease gene is provided in SEQ. ID. No. 2 (FIG. 12B).

[1] = genotype group: 32, 46, 47, 54, n=4
[2] = genotype group: 32, 47, 54, 84, n=5
[3] = genotype group: 32, 47, 54, n=17
[4] = genotype group: 46 (M46I or L), 54, n=16
[5] = genotype group: 46, 54, 84, n=29
[6] = genotype group: 47, 54, 84, n=3
[7] = genotype group: 54 (I54L or M only), n=9
[8] = genotype group: not containing any tested mutation, n=1096
[9] = genotype group: protease mutation 32, n=26
[10] = genotype group: wild-type (all primary positions), n=623

SMILES	median FC in each group (each group carrying APV resistance mutations (Table 9))	Median FC (genotype group: 32, 46, 47, 54, 84, n=6)	Median FC [1]	Median FC [2]	Median FC [3]	Median FC (genotype group: 32, 47, n=23)	Median FC (genotype group: 32, 84, n=3)	Median FC [4]	Median FC [5]	Median FC [6]	Median FC (genotype group: 47, 54, n=3)	Median FC (genotype group: 47, 84, n=4)	Median FC (genotype group: 47, n=8)	Median FC (genotype group: 50, n=42)	Median FC [7]	Median FC (genotype group: 54, 84, n=22)	Median FC (genotype group: 84, n=247)	Median FC [8]	Median FC [9]	Median FC [10]
CC(C)CN(C[C@@H](O)[C@H](Cc1ccccc1)NC(=O)O[C@H]1CCOC1)S(=O)(=O)c1ccc(N)cc1 [APV, amprenavir]	≥ 9.5 fold	130	130	130	40	12	51	84	47	24	42	12	26	20	22	67	11	1.6	9.5	0.6
Cc1cccc(C)c1OCC(=O)N[C@@H](Cc1ccccc1)[C@@H](O)C[C@H](Cc1ccccc1)NC(=O)[C@H](C(C)C)N1CCCNC1=O [LPV, lopinavir]	–	–	208	227	146	7.5	124	138	30	20	88	28	–	54	160	93	7.1	2.1	12	0.6
